The target of this assay is T1, 11β-HSD1 (Homo sapiens, UniProt P28845).
T1 construct: human liver microsome (enzyme source, Tissue Transformation Technologies); tissue Tissue Transformation Technologies; host or cells: human liver microsomes
As to the kind of experiment: 11β-HSD1 inhibition test (human liver microsome, HTRF cortisol detection). Format: biochemical. Conditions: human liver microsome as enzyme source; cortisone 100 nM; 20° C., 80 minutes; generated cortisol quantified by HTRF. As for the experimental part:
Test Example [11β-HSD1 Inhibition Test]
Test Compounds were Evaluated as Follows.
11β-HSD1 enzyme reaction was performed in a reaction solution of 100 μl total volume using 96-well polypropylene microplates. The reaction solution was prepared in 30 mM Tris-HCl (pH 7.4)/1 mM EDTA buffer to contain NADPH at a final concentration of 100 μM, G6P at a final concentration of 1 mM, human liver microsome (enzyme source, Tissue Transformation Technologies) at a final concentration of 0.8 μg/ml and 10 μl of a test compound dissolved in DMSO. The enzyme reaction was initiated by addition of cortisone at a final concentration of 100 nM. After incubation at 20° C. for 80 minutes, 10 μl of 1 mM 18β glycyrrhetinic acid, which is a non-specific inhibitor, was added to stop the reaction. Next, the amount of generated cortisol was quantified with a detection kit (Sceti Medical Labo K.K., Japan) according to the HTRF (Homogeneous Time-Resolved Fluorescence) method. This system detects fluorescence resonance energy transfer between europium-labeled anti-cortisol antibody and XL665-labeled cortisol. Upon addition of unlabeled cortisol, binding signals will be attenuated due to competitive reaction. Based on this principle, the amount of cortisol generated by the enzyme reaction was evaluated using a standard curve obtained from samples with known concentrations of cortisol included in the kit. The HTRF reaction was performed in 96-well half area microplates as follows: to 30 μl enzyme reaction solution, an anti-cortisol antibody solution (15 μl) and an XL665-labeled cortisol solution (15 μl) included in the kit were added, and the plates were vortexed at room temperature for 1 hour and further allowed to stand at 20° C. for 1 hour. 40 μl of this reaction solution was transferred to 384-well microplates and measured for its fluorescence. 18β Glycyrrhetinic acid was added to wells before initiation of the enzyme reaction and the amount of cortisol generated in these wells was used as a background level. Test compounds were evaluated using serial dilutions at a common ratio of 3 to calculate their IC50 values, assuming that the amount of cortisol generated in wells containing no test compound was set to 100% enzyme activity.

Molecules are shown by their SMILES. pIC50: −log10 of the molar value. Structures can show the parent of a compound that is named as a salt.

T1 sequence (P28845 whole entry): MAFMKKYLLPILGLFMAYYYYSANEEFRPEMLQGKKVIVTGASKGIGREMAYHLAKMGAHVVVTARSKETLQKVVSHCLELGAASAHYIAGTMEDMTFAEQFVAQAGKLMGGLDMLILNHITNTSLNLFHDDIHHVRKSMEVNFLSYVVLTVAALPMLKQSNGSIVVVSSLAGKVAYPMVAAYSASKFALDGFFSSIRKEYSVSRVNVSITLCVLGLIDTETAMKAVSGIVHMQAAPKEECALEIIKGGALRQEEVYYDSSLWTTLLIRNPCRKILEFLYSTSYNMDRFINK

`O=C(N[C@H]1C2CC3CC1C[C@](O)(C3)C2)N1CCCc2cccc(F)c21` [Compound 4, 8-fluoro-N-(E-1-hydroxyadamantan-4-yl)-3,4-dihydroquinoline-1(2H)-carboxamide] had a pIC50 of 8.96.
For `O=C(N[C@H]1C2CC3CC1C[C@](O)(C3)C2)N1CCOc2ccccc21` [Compound 16, N-(E-1-hydroxyadamantan-4-yl)-2,3-dihydro-4H-1,4-benzoxazine 4-carboxamide] the value was 8.82; for `CS(=O)(=O)[C@]12CC3CC(C1)[C@@H](NC(=O)N1CCOc4ccccc41)C(C3)C2` [Compound 41, N-(E-1-methylsulfonyladamantan-4-yl)-2,3-dihydro-4H-1,4-benzoxazine-4-carboxamide], 7.46.
For `O=C(N[C@H]1C2CC3CC1C[C@](O)(C3)C2)N1CCOc2ccc(C(F)(F)F)cc21` [Compound 26, N-(E-5-hydroxyadamantan-2-yl)-6-(trifluoromethyl)-2,3-dihydro-4H-1,4-benzoxazine-4-carboxamide] the value was 8.47; for `O=C(N[C@H]1C2CC3CC1C[C@](O)(C3)C2)N1CCCc2ccccc21` [Compound A-1, N-[E-1-hydroxyadamantan-4-yl]-3,4-dihydroquinoline-1(2H)-carboxamide], 9.15; for `O=C(N[C@H]1C2CC3CC1C[C@](O)(C3)C2)N1CCOc2cc(F)ccc21` [Compound 24, 7-fluoro-N-(E-5-hydroxyadamantan-2-yl)-2,3-dihydro-4H-1,4-benzoxazine-4-carboxamide], 8.96.
The same measure for `CO[C@]12CC3CC(C1)[C@@H](NC(=O)N1CCCc4ccccc41)C(C3)C2` [Compound 8, N-(E-1-methoxyadamantan-4-yl)-3,4-dihydroquinoline-1(2H)-carboxamide]: 9.05; for `NC(=O)C12CC3CC(C1)C(NC(=O)N1CCCc4ccccc41)C(C3)C2` (stereo not shown) [Compound 11b, N-(E-5-carbamoyladamantan-2-yl)-3,4-dihydroquinoline-1(2H)-carboxamide]: 9.10; for `Cc1ccc2c(c1)N(C(=O)N[C@H]1C3CC4CC1C[C@](O)(C4)C3)CCO2` [Compound 17, N-(E-1-hydroxyadamantan-4-yl)-6-methyl-2,3-dihydro-4H-1,4-benzoxazine 4-carboxamide]: 9.10.
For the compound `O=C(N[C@H]1C2CC3CC1C[C@](O)(C3)C2)N1CCSc2ccccc21` [Compound 27, N-(E-5-hydroxyadamantan-2-yl)-2,3-dihydro-4H-1,4-benzothiazine-4-carboxamide], the pIC50 was 9.15.
For `O=C(N[C@H]1C2CC3CC1C[C@](O)(C3)C2)N1CCCc2c(F)cccc21` [Compound 1, 5-fluoro-N-(E-1-hydroxyadamantan-4-yl)-3,4-dihydroquinoline-1(2H)-carboxamide] the value was 9.00; for `CO[C@]12CC3CC(C1)[C@@H](NC(=O)N1CCOc4ccccc41)C(C3)C2` [Compound 40, N-(E-1-methoxyadamantan-4-yl)-2,3-dihydro-4H-1,4-benzoxazine-4-carboxamide], 8.96.
The same measure for `O=C(N[C@H]1C2CC3CC1C[C@](O)(C3)C2)N1CCCc2cc(Cl)ccc21` [Compound A-2, 6-chloro-N-[E-1-hydroxyadamantan-4-yl]-3,4-dihydroquinoline-1(2H)-carboxamide]: 9.05; for `O=C(OC1C2CC3CC1CC(O)(C3)C2)N1CCOc2ccccc21` (stereo not shown) [Compound 42b, E-5-hydroxyadamantan-2-yl 2,3-dihydro-4H-1,4-benzoxazine-4-carboxylate]: 8.34.
The same measure for `NC(=O)[C@]12CC3CC(C1)[C@@H](NC(=O)N1CCOc4ccccc41)C(C3)C2` [Compound 37b, N-[E-5-carbamoyladamantan-2-yl]-2,3-dihydro-4H-1,4-benzoxazine-4-carboxamide]: 9.22; for `O=C(NC1C2CC3CC(C2)CC1C3)N1CCOc2ccccc21` (stereo not shown) [Compound 34, N-adamantan-2-yl-2,3-dihydro-4H-1,4-benzoxazine-4-carboxamide]: 8.96.
The compound `COc1ccc2c(c1)N(C(=O)N[C@H]1C3CC4CC1C[C@](O)(C4)C3)CCC2` [Compound 5, N-(E-1-hydroxyadamantan-4-yl)-7-methoxy-3,4-dihydroquinoline-1(2H)-carboxamide] gave a pIC50 of 8.92.
The same measure for `Cc1ccc2c(c1)N(C(=O)N[C@H]1C3CC4CC1C[C@](O)(C4)C3)CCC2` [Compound 6, N-(E-1-hydroxyadamantan-4-yl)-7-methyl-3,4-dihydroquinoline-1(2H)-carboxamide]: 9.22; for `N#Cc1ccc2c(c1)CCCN2C(=O)N[C@H]1C2CC3CC1C[C@](O)(C3)C2` [Compound 7, 6-cyano-N-(E-1-hydroxyadamantan-4-yl)-3,4-dihydroquinoline-1(2H)-carboxamide]: 8.55; for `COC(=O)c1ccc2c(c1)N(C(=O)N[C@H]1C3CC4CC1C[C@](O)(C4)C3)CCO2` [Compound 20, methyl 4-[(E-5-hydroxyadamantan-2-yl)carbamoyl]-3,4-dihydro-2H-1,4-benzoxazine-6-carboxylate]: 8.17.
The same measure for `CC1(C)CCN(C(=O)N[C@H]2C3CC4CC2C[C@](O)(C4)C3)c2ccccc21` [Compound 14, N-(E-1-hydroxyadamantan-4-yl)-4,4-dimethyl-3,4-dihydroquinoline-1(2H)-carboxamide]: 8.70.
For `Cc1ccc2c(c1)N(C(=O)N[C@H]1C3CC4CC1C[C@](C(N)=O)(C4)C3)CCO2` [Compound 39, N-(E-5-carbamoyladamantan-2-yl)-6-methyl-2,3-dihydro-4H-1,4-benzoxazine-4-carboxamide] the value was 9.22.
Take `NC(=O)[C@]12CC3CC(C1)[C@@H](NC(=O)N1CCOc4ccc(F)cc41)C(C3)C2` [Compound 38, N-(E-5-carbamoyladamantan-2-yl)-6-fluoro-2,3-dihydro-4H-1,4-benzoxazine-4-carboxamide]: the pIC50 is 9.22.
The same measure for `O=C(OC1C2CC3CC1CC(O)(C3)C2)N1CCCc2ccccc21` (stereo not shown) [Compound 18b, E-5-hydroxyadamantan-2-yl 3,4-dihydroquinoline-1(2H)-carboxylate]: 9.05; for `O=C(N[C@H]1C2CC3CC1C[C@](O)(C3)C2)N1CCCc2cc(F)ccc21` [Compound 2, 6-fluoro-N-(E-1-hydroxyadamantan-4-yl)-3,4-dihydroquinoline-1(2H)-carboxamide]: 9.05.
The same measure for `O=C(N[C@H]1C2CC3CC1C[C@](O)(C3)C2)N1CCc2ccccc21` [Compound A-6, N—[E-1-hydroxyadamantan-4-yl]-2,3-dihydro-1H-indole-1-carboxamide]: 8.08; for `O=C(NC1C2CC3CC(C2)CC1C3)N1CCCc2ccccc21` (stereo not shown) [Compound A-5, N-adamantan-2-yl-3,4-dihydroquinoline-1(2H)-carboxamide]: 8.82; for `CN(C(=O)N1CCCc2ccccc21)[C@H]1C2CC3CC1C[C@](O)(C3)C2` [Compound A-7, N-[E-1-hydroxyadamantan-4-Y^1]-N-methyl-3,4-dihydroquinoline-1(2H)-carboxamide]: 8.02.
In turn, `O=C(N[C@H]1C2CC3CC1C[C@](O)(C3)C2)N1CCCCc2ccccc21` [Compound 13, N-(E-1-hydroxyadamantan-4-yl)-2,3,4,5-tetrahydro-1H-1-benzoazepine-1-carboxamide] had a pIC50 of 8.92.
For `O=C(N[C@H]1C2CC3CC1C[C@](O)(C3)C2)N1CCOc2ccc(F)cc21` [Compound 19, 6-fluoro-N-(E-1-hydroxyadamantan-4-yl)-2,3-dihydro-4H-1,4-benzoxazine 4-carboxamide] the value was 8.46; for `Cc1ccc2c(c1)OCCN2C(=O)N[C@H]1C2CC3CC1C[C@](O)(C3)C2` [Compound 23, N-(E-5-hydroxyadamantan-2-yl)-7-methyl-2,3-dihydro-4H-1,4-benzoxazine-4-carboxamide], 8.96.
In the case of `CN1CCN(C(=O)N[C@H]2C3CC4CC2C[C@](O)(C4)C3)c2ccccc21` [Compound 33, N-(E-5-hydroxyadamantan-2-yl)-4-methyl-3,4-dihydroquinoxaline-1(2H)-carboxamide hydrochloride], the pIC50 is 8.85.
For `O=C(NC1C2CC3CC1CC(C(=O)O)(C3)C2)N1CCCc2ccccc21` (stereo not shown) [Compound 10b, E-4-[(3,4-dihydroquinolin-1(2H)-ylcarbonyl)amino]adamantane-1-carboxylic acid] the value was 7.76.
For `O=C(N[C@H]1C2CC3CC1C[C@](O)(C3)C2)N1CCNc2ccccc21` [Compound 32, N-(E-5-hydroxyadamantan-2-yl)-3,4-dihydroquinoxaline-1(2H)-carboxamide hydrochloride] the value was 8.85.

As a reminder, the pIC50 is the IC50 on a negative log10 scale, so that one unit is a factor of ten. A lower pIC50 goes with a high IC50.

Source of the values: patent US8222417B2, “Compound having 11β-HSD1 inhibitory activity” (Taisho Pharmaceutical Co., Ltd, priority 2007, dated 2012).
